Measurements from PubChem BioAssay AID1361 (SRMLSC, 2008).
pIC50: −log10 of the molar value. Active and inactive are the calls of the source. The rule behind the calls is not given here.

Experiment: mitochondrial fusion inhibitors, confirmation, cell-based, chemical genetic, wild-type and mutant (AID 1361)
Details: Cell-based mitochondrial fusion phenotype, imaging
[1] = mutant cells, measured here: mutant cell line IC50

| SMILES | IC50 (WT cells) | pIC50 [1] | pIC50 (WT cells) |
| --- | --- | --- | --- |
| Cc1ccccc1S(=O)(=O)c1c(C)cc(C)n(CC(C)C)c1=O | > 25 µM (inactive) | < 4.60 |  |
| CCC[C@@H]1C[C@@]1(CCC)[C@@H](NP(=O)(c1ccccc1)c1ccccc1)c1ccc(C(=O)OC)cc1 |  | < 4.60 | 4.90 |
| CCC(C)(C)c1ccc(Oc2ccc(N)cc2)cc1 | > 25 µM (inactive) | < 4.60 |  |
| c1ccc(Cn2c(CNc3nc4ccccc4n3CCN3CCCCC3)nc3ccccc32)cc1 | > 25 µM (inactive) | < 4.60 |  |
| CCN(c1ccccc1)S(=O)(=O)c1cnc[nH]1 | > 25 µM (inactive) | < 4.60 |  |
| N#CCC(=O)N/N=C/c1cc(-c2ccccc2)n(-c2ccc(Cl)cc2)c1-c1ccccc1 |  | < 4.60 | 5.38 |
| Cc1cc(C)cc(NC(=S)NCCSc2ccc(Cl)cc2)c1 |  | 5.20 | 5.33 |
| COC(=O)c1ccc(/C=C(\C#N)c2nc3ccccc3s2)cc1 | > 25 µM (inactive) | < 4.60 |  |
| CC(C)N=c1scc(-c2cccs2)n1/N=C/c1ccc(O)c(O)c1O | > 25 µM (inactive) | < 4.60 |  |
| COc1cc(OC)c2c(c1)C(=O)c1cc(OC)cc(OC)c1C2=O | > 25 µM (inactive) | < 4.60 |  |
